Read-outs that look alike come from different tables or passages of the source.
Columns and labels:
OVCAR-5 = experiment: NCI SRB cytotoxicity, ovarian OVCAR-5; assay type: cell-based; details: Homo sapiens, 48 h exposure
Description: (§1) The pyrazolochalcones (7e, 8e, 10e, 11e, 12e, 13e and 8f) have been tested against fifty nine human tumor cell lines derived from nine cancer types (leukemia, non-small cell lung cancer, colon cancer, CNS cancer, melanoma, ovarian cancer, renal cancer, prostate cancer and breast cancer) as per the NCI protocol. For each compound, dose response curves for individual cell lines have been measured at a minimum of five concentrations at 10 fold dilutions. A protocol of 48 h continuous drug exposure has been used, and a sulforhodamine B (SRB) protein assay has been used to estimate cell viability or growth. The concentration for 50% cell growth inhibition (GI50), 50% cell death (LC50, 50% growth) and total cell growth inhibition (TGI, 0% growth) values were tabulated (Table-1). DMSO was used as control to calculate the values of GI50, LC50 and TGI. The compounds 7e, 8e, 10e, 11e, 12e, 13e and 8f has been evaluated for their in vitro cytotoxicity in […] cell lines from nine human cancer types of leukemia (K-562, SR), non-small cell lung (Hop-62, NCI-H226, NCI-H522), colon (HCT-116, HCT-15, HCC-2998), CNS (SF-539), melanoma (SK-MEL-5, UACC-62, M14), ovarian (IGROV1), renal (A498), prostate (PC3) and breast (BT-549, MDA-MB-435, HS578T) origin. The results are expressed as percent of cell growth determined relative to that of untreated control cells (Table 2).

TK-10 = experiment: NCI SRB cytotoxicity, renal TK-10; assay type: cell-based; details: Homo sapiens, 48 h exposure
Description: as §1

NCI-H460 = experiment: NCI SRB cytotoxicity, non-small cell lung NCI-H460; assay type: cell-based; details: Homo sapiens, 48 h exposure
Description: as §1

HOP-62 = experiment: NCI SRB cytotoxicity, non-small cell lung HOP-62; assay type: cell-based; details: Homo sapiens, 48 h exposure
Description: as §1

UACC-257 = experiment: NCI SRB cytotoxicity, melanoma UACC-257; assay type: cell-based; details: Homo sapiens, 48 h exposure
Description: as §1

HCT-15 = experiment: NCI SRB cytotoxicity, colon HCT-15; assay type: cell-based; details: Homo sapiens, 48 h exposure
Description: as §1

Leukemia = experiment: NCI SRB cytotoxicity, leukemia panel average; assay type: cell-based, human; details: average of cell lines
Description: as §1
(§2) Each cancer type represents the average of six to eight different cancer cell lines.

MDA-MB-231/ATCC = experiment: NCI SRB cytotoxicity, breast MDA-MB-231/ATCC; assay type: cell-based; details: Homo sapiens, 48 h exposure
Description: as §1

CAKI-1 = experiment: NCI SRB cytotoxicity, renal CAKI-1; assay type: cell-based; details: Homo sapiens, 48 h exposure
Description: as §1

SW-620 = experiment: NCI SRB cytotoxicity, colon SW-620; assay type: cell-based; details: Homo sapiens, 48 h exposure
Description: as §1

Ovarian = experiment: NCI SRB cytotoxicity, ovarian panel average; assay type: cell-based, human; details: average of cell lines
Description: as §1, §2

DU-145 = experiment: NCI SRB cytotoxicity, prostate DU-145; assay type: cell-based; details: Homo sapiens, 48 h exposure
Description: as §1

HOP92 = experiment: NCI SRB cytotoxicity, non-small cell lung HOP92; assay type: cell-based; details: Homo sapiens, HOP-92, 48 h exposure
Description: as §1

KM12 = experiment: NCI SRB cytotoxicity, colon KM12; assay type: cell-based; details: Homo sapiens, 48 h exposure
Description: as §1

A498 = experiment: NCI SRB cytotoxicity, renal A498; assay type: cell-based; details: Homo sapiens, 48 h exposure
Description: as §1

A549/ATCC = experiment: NCI SRB cytotoxicity, non-small cell lung A549/ATCC; assay type: cell-based; details: Homo sapiens, 48 h exposure
Description: as §1

NCI-H23 = experiment: NCI SRB cytotoxicity, non-small cell lung NCI-H23; assay type: cell-based; details: Homo sapiens, 48 h exposure
Description: as §1

SF-268 = experiment: NCI SRB cytotoxicity, CNS SF-268; assay type: cell-based; details: Homo sapiens, 48 h exposure
Description: as §1

OVCAR-4 = experiment: NCI SRB cytotoxicity, ovarian OVCAR-4; assay type: cell-based; details: Homo sapiens, 48 h exposure
Description: as §1

HCC-2998 = experiment: NCI SRB cytotoxicity, colon HCC-2998; assay type: cell-based; details: Homo sapiens, 48 h exposure
Description: as §1

UACC-62 = experiment: NCI SRB cytotoxicity, melanoma UACC-62; assay type: cell-based; details: Homo sapiens, 48 h exposure
Description: as §1

SR = experiment: NCI SRB cytotoxicity, leukemia SR; assay type: cell-based; details: Homo sapiens, 48 h exposure
Description: as §1

RPMI-8226 = experiment: NCI SRB cytotoxicity, leukemia RPMI-8226; assay type: cell-based; details: Homo sapiens, 48 h exposure
Description: as §1

HS 578T = experiment: NCI SRB cytotoxicity, breast HS 578T; assay type: cell-based; details: Homo sapiens, 48 h exposure
Description: as §1

NCI-H226 = experiment: NCI SRB cytotoxicity, non-small cell lung NCI-H226; assay type: cell-based; details: Homo sapiens, 48 h exposure
Description: as §1

CNS = experiment: NCI SRB cytotoxicity, CNS panel average; assay type: cell-based, human; details: average of cell lines
Description: as §1, §2

human tumor cell lines = experiment: NCI SRB cytotoxicity, all fifty nine human tumor cell lines; assay type: cell-based; design: Log10 TGI mean graph midpoint (MG_MID): unit not given here; details: for GI50: Homo sapiens
Description: as §1
The mean graph midpoint values of Log10 TGI and Log10 LC50 as well as Log10 GI50 for compounds 7e, 8e, 10e, 11e, 12e, 13e and 8f is listed in Table-3. […] The mean graph mid points of Log10 TGI and Log10, LC50 have shown similar pattern to the log10 GI50 mean graph mid points.

SN12C = experiment: NCI SRB cytotoxicity, renal SN12C; assay type: cell-based; details: Homo sapiens, 48 h exposure
Description: as §1

MDA-MB-435 = experiment: NCI SRB cytotoxicity, breast panel MDA-MB-435; assay type: cell-based; details: Homo sapiens, 48 h exposure
Description: as §1

[1] = Homo sapiens, read-out: Log10 GI50 (concentration in mol/L causing 50% growth inhibition) (converted)
[2] = Homo sapiens, read-out: Log10 LC50 (concentration in mol/L causing 50% cell death) (converted)

`COc1ccc(C(=O)/C=C/c2cc(-c3cc(OC)c(OC)c(OC)c3)n[nH]2)cc1` [7e, (E)-1-(4-methoxyphenyl)-3-(3-(3,4,5-trimethoxyphenyl)-1H-pyrazol-5-yl)prop-2-en-1-one] was tested. Which GI50 (OVCAR-5) did it give?
The GI50 was 1.88 µM.

What about the GI50 (TK-10) of the same molecule?
Its GI50 is 2.22 µM.

And the GI50 (NCI-H460)?
Its GI50 is 1.72 µM.

What about the GI50 (HOP-62) of the same molecule?
The GI50 was 1.76 µM.

What about the GI50 (UACC-257) of the same molecule?
The GI50 was 1.75 µM.

And the GI50 (HCT-15)?
Its GI50 is 1.58 µM.

What about the GI50 (Leukemia; [1]) of the same molecule?
The GI50 was 1.2 µM.

What about the CC50 (Leukemia; [2]) of the same molecule?
Its CC50 is 0.0001 mol/L.

And the “Log10 TGI (concentration in mol/L causing total growth inhibition (0% growth))” value (Leukemia)?
Its value is −5.18 mol/L.

And the GI50 (MDA-MB-231/ATCC)?
The GI50 was 1.88 µM.

And the GI50 (CAKI-1)?
Its GI50 is 2.34 µM.

And the GI50 (SW-620)?
The GI50 was 1.62 µM.

And the GI50 (Ovarian; [1])?
The GI50 was 2.4 µM.

And the CC50 (Ovarian; [2])?
The CC50 was 47.9 µM.

And the “Log10 TGI (concentration in mol/L causing total growth inhibition (0% growth))” value (Ovarian)?
Its value is −5.15 mol/L.

And the GI50 (DU-145)?
Its GI50 is 1.43 µM.

And the GI50 (HOP92)?
The GI50 was 1.06 µM.

What about the GI50 (KM12) of the same molecule?
The GI50 was 1.56 µM.

What about the GI50 (A498) of the same molecule?
The GI50 was 1.74 µM.

What about the GI50 (A549/ATCC) of the same molecule?
Its GI50 is 2.27 µM.

And the GI50 (NCI-H23)?
The GI50 was 3.04 µM.

And the GI50 (SF-268)?
Its GI50 is 1.99 µM.

And the GI50 (OVCAR-4)?
Its GI50 is 2.2 µM.

And the GI50 (HCC-2998)?
The GI50 was 1.78 µM.

And the GI50 (UACC-62)?
Its GI50 is 1.85 µM.

And the GI50 (SR)?
Its GI50 is 0.34 µM.

And the GI50 (RPMI-8226)?
Its GI50 is 0.43 µM.

And the GI50 (HS 578T)?
The GI50 was 3.6 µM.

And the GI50 (NCI-H226)?
The GI50 was 1.89 µM.

And the GI50 (CNS; [1])?
Its GI50 is 1.66 µM.

And the LC50 (CNS; [2])?
The LC50 was 24.5 µM.

What about the “Log10 TGI (concentration in mol/L causing total growth inhibition (0% growth))” value (CNS) of the same molecule?
The value was −5.46 mol/L.

And the GI50 (human tumor cell lines; across fifty nine cell lines in nine cell panels, read-out: GI50 value range)?
The GI50 was 0.18 to 29.2 µM.

What about the GI50 (human tumor cell lines; against human tumor cell lines, read-out: Log10 GI50 mean graph midpoint (MG_MID) (converted)) of the same molecule?
Its GI50 is 1.78 µM.

And the cytotoxicity (human tumor cell lines; against cancer cell lines, in words)?
Its cytotoxicity is “significant cytotoxicity”.

What about the “Log10 TGI mean graph midpoint (MG_MID)” value (human tumor cell lines; against human tumor cell lines) of the same molecule?
The value was −5.31.

And the LC50 (human tumor cell lines; against human tumor cell lines, read-out: Log10 LC50 mean graph midpoint (MG_MID) (converted))?
The LC50 was 33.9 µM.

What about the GI50 (SN12C) of the same molecule?
Its GI50 is 1.81 µM.

And the GI50 (MDA-MB-435)?
The GI50 was 1.29 µM.

— patent publication US9604933B2, “Pyrazolochalcones as potential anticancer agents” (COUNCIL OF SCIENTIFIC AND INDUSTRIAL RESEARCH, priority 2013, dated 2017)
